Assays:
Androgen receptor = molecular target: T1, Androgen receptor (Homo sapiens, UniProt P10275)
T1 sequence (P10275 whole entry): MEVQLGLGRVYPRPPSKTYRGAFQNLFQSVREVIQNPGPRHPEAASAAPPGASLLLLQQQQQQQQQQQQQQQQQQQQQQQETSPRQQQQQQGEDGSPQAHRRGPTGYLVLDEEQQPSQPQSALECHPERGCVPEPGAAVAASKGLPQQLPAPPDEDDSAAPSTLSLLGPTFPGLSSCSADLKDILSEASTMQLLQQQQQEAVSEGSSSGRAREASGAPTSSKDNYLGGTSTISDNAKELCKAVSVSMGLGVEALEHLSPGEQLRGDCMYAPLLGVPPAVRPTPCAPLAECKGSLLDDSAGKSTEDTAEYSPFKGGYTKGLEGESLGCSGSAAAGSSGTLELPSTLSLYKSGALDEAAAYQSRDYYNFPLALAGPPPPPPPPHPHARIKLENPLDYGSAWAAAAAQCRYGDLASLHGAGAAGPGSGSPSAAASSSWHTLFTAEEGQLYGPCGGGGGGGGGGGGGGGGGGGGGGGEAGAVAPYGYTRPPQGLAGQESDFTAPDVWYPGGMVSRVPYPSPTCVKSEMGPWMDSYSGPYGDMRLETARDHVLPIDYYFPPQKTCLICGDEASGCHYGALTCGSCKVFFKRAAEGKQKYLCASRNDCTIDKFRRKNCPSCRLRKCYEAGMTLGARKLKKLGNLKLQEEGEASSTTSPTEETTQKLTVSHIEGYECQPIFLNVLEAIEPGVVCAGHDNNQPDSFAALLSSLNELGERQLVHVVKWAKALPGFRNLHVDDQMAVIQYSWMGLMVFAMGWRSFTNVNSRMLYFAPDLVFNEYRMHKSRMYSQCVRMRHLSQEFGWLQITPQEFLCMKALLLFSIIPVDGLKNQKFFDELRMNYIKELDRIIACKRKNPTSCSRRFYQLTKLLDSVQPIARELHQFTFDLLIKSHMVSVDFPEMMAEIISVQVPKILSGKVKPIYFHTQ

[1] = molecular target: Gamma-aminobutyric acid receptor subunit alpha-1/alpha-2/beta-2/gamma-2 (Homo sapiens, UniProt P14867+P18507+P47869+P47870); assay type: protein-complex assay
Sequence of Gamma-aminobutyric acid receptor subunit alpha-1/alpha-2/beta-2/gamma-2 (P14867 whole entry): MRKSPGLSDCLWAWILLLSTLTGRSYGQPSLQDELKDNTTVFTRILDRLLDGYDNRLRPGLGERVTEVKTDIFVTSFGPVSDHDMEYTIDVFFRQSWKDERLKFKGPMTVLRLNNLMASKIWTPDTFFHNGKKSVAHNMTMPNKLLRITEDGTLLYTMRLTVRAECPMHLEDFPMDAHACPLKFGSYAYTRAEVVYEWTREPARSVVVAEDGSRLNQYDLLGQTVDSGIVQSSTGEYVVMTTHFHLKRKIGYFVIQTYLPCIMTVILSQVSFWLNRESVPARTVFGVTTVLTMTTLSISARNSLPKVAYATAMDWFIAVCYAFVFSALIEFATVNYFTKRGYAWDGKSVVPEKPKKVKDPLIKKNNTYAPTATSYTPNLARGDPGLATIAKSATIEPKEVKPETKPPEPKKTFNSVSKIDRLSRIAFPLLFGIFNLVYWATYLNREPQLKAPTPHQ
Sequence of Gamma-aminobutyric acid receptor subunit alpha-1/alpha-2/beta-2/gamma-2 (P47870 whole entry): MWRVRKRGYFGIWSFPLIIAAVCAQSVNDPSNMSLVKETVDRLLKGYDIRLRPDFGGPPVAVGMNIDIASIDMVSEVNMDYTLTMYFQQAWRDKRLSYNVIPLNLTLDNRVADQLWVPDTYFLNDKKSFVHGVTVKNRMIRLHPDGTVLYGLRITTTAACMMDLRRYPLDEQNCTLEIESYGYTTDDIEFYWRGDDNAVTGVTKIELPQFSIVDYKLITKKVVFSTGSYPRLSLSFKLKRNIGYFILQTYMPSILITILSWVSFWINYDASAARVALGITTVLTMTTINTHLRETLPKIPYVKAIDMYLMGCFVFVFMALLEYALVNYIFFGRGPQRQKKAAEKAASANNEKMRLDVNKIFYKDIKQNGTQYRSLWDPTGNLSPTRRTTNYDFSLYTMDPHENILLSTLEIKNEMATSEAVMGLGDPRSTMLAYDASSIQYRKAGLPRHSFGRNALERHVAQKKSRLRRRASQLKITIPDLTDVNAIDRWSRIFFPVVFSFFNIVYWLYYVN
Sequence of Gamma-aminobutyric acid receptor subunit alpha-1/alpha-2/beta-2/gamma-2 (P18507 whole entry): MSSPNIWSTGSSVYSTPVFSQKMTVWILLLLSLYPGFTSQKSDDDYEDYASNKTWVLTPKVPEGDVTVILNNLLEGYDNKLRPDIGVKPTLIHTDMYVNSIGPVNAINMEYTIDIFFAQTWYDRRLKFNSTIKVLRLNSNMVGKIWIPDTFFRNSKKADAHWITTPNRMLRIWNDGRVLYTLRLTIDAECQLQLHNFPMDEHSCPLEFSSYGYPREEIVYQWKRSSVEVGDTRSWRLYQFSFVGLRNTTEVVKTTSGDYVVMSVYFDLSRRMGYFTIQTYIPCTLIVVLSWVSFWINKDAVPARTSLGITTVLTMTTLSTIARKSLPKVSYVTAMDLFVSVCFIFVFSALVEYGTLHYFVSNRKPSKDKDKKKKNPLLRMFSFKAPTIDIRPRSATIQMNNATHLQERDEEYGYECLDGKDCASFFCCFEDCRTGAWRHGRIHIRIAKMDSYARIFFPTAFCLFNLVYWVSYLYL
Sequence of Gamma-aminobutyric acid receptor subunit alpha-1/alpha-2/beta-2/gamma-2 (P47869 whole entry): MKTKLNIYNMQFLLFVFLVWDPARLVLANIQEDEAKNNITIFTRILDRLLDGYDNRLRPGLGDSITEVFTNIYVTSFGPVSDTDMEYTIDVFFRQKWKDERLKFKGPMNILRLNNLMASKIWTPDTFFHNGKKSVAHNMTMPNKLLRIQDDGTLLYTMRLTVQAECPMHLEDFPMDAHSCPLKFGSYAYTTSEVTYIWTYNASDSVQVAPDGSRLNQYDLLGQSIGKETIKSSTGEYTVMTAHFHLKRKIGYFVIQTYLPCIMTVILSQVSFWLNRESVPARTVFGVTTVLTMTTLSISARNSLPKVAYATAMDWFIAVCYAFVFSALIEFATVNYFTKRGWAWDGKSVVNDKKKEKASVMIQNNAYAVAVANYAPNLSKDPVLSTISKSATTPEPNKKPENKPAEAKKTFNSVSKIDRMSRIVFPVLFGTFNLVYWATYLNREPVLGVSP

[2] = molecular target: T2, Muscarinic acetylcholine receptor M1 (Homo sapiens, UniProt P11229); assay type: functional, cell-based
T2 sequence (P11229 whole entry): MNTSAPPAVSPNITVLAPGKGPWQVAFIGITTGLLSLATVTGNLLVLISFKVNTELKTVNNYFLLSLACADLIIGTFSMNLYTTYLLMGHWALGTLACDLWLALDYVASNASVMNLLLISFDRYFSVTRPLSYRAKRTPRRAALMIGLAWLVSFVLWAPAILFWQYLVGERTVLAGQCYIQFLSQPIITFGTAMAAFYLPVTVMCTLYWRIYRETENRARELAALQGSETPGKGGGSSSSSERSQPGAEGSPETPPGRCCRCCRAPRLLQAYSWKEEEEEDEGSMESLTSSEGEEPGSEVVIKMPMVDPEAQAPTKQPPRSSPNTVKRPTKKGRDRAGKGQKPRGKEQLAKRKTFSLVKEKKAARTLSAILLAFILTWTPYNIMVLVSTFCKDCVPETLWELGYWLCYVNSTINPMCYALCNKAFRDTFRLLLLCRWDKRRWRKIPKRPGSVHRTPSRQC

[3] = molecular target: T2, Muscarinic acetylcholine receptor M1; assay type: functional, cell-based; remark: listed apart in the source
[4] = molecular target: Gamma-aminobutyric acid receptor subunit alpha-1 (Rattus norvegicus, UniProt P62813)
Sequence of Gamma-aminobutyric acid receptor subunit alpha-1 (P62813 whole entry): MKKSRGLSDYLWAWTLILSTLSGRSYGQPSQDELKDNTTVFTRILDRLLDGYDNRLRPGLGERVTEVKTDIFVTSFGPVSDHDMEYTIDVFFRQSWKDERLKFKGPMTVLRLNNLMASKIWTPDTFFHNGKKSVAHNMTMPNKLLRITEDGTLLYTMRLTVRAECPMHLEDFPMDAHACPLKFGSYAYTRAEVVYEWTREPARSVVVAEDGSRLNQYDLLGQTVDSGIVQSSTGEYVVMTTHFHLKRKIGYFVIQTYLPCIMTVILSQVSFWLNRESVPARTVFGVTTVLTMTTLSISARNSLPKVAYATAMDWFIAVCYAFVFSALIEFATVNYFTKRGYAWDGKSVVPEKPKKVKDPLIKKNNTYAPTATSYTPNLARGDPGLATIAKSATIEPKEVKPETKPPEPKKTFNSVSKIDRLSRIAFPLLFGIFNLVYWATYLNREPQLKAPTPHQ

[5] = molecular target: T2, Muscarinic acetylcholine receptor M1; assay type: functional
[6] = molecular target: 3',5'-cyclic-AMP phosphodiesterase 4D (Homo sapiens, UniProt Q08499); assay type: functional
Sequence of 3',5'-cyclic-AMP phosphodiesterase 4D (Q08499 whole entry): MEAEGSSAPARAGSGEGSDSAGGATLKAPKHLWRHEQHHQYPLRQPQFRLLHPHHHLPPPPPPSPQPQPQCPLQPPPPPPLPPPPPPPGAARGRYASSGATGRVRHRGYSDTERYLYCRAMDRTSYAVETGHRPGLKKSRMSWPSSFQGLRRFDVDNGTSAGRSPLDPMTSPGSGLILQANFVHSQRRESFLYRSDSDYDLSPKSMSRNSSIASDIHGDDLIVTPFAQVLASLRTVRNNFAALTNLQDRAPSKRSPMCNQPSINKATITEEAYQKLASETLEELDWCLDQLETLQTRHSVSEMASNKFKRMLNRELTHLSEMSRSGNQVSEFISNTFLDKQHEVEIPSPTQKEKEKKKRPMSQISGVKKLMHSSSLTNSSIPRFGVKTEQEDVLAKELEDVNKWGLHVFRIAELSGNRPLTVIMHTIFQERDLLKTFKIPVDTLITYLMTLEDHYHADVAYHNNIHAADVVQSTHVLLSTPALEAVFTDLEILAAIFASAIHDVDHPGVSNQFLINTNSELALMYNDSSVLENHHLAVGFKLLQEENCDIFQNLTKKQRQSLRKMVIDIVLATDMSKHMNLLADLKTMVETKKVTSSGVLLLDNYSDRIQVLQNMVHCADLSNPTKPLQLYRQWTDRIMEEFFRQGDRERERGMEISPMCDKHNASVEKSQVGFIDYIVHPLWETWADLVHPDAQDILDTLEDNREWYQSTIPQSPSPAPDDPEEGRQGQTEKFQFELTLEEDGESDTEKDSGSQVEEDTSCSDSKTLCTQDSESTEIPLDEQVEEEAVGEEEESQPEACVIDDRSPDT

[7] = molecular target: 5-hydroxytryptamine receptor 2A (Homo sapiens, UniProt P28223); assay type: functional, cell-based
Sequence of 5-hydroxytryptamine receptor 2A (P28223 whole entry): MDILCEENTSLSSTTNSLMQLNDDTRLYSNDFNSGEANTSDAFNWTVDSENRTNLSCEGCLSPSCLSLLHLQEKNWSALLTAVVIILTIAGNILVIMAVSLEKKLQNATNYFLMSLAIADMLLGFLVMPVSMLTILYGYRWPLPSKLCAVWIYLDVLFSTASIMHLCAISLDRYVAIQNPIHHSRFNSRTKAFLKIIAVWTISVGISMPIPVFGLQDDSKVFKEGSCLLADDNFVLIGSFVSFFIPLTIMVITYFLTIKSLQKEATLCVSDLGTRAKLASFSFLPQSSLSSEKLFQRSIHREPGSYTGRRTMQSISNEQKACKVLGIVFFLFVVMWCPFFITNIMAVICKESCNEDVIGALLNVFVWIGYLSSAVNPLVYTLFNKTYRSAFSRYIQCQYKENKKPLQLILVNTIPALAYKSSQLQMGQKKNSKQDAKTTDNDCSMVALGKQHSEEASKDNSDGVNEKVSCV

Histamine H1 receptor = Histamine H1 receptor (Homo sapiens, UniProt P35367)
Sequence of Histamine H1 receptor (P35367 whole entry): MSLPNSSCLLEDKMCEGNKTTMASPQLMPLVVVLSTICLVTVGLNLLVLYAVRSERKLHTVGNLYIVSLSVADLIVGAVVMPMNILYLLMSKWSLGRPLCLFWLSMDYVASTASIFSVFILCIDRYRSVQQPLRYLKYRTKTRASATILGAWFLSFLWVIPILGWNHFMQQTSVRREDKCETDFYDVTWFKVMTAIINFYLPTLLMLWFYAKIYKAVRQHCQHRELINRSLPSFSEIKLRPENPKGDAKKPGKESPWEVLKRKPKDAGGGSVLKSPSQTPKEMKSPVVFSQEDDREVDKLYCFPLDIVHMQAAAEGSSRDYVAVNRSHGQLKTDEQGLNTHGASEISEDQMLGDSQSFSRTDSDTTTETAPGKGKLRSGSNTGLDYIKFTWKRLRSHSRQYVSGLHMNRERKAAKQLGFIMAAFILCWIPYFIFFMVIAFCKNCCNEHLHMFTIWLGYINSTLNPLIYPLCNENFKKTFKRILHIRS
Further: assay procedure not described here.

Compound	AC50 (Androgen receptor) [µM]	AC50 [1] [µM]	AC50 [2] [µM]	AC50 [3] [µM]	AC50 [4] [µM]	AC50 [5] [µM]	AC50 [6] [µM]	AC50 [7] [µM]	AC50 (Histamine H1 receptor) [µM]
Cc1ccc2c([nH]c(=O)c3c(=O)cc(C(=O)OCCC(C)C)oc32)c1C	> 30	> 10	> 30	> 30	–	–	–	–	–
COC(=O)N[C@H](C(=O)N1CC2(CC2)C[C@H]1c1ncc(-c2ccc3c(c2)C(F)(F)c2cc(-c4ccc5nc([C@@H]6[C@H]7CC[C@H](C7)N6C(=O)[C@@H](NC(=O)OC)C(C)C)[nH]c5c4)ccc2-3)[nH]1)C(C)C	> 10	> 30	> 30	> 30	–	–	–	–	–
CC(NCCC(c1ccccc1)c1ccccc1)c1ccccc1 (stereo not drawn) [FENDILINE]	> 30	> 10	26.7	–	–	–	–	–	–
CC(C)(Oc1ccc(C(=O)c2ccc(Cl)cc2)cc1)C(=O)O [FENOFIBRIC ACID]	> 30	> 30	> 30	> 30	–	–	–	–	–
COC(=O)Nc1nc2cc(C(=O)c3ccc(F)cc3)ccc2[nH]1 [FLUBENDAZOLE]	> 30	> 30	–	–	–	–	–	–	–
COCC(=O)O[C@]1(CCN(C)CCCc2nc3ccccc3[nH]2)CCc2cc(F)ccc2[C@@H]1C(C)C [MIBEFRADIL]	> 30	> 10	17.7	> 3	> 30	–	–	–	–
Oc1ccc(OCc2ccccc2)cc1 [MONOBENZONE]	> 30	> 30	–	–	–	–	–	–	–
C[C@@H]1O[C@@H](O[C@H]2C[C@@H](O)[C@]3(CO)[C@H]4[C@H](O)C[C@]5(C)[C@@H](C6=CC(=O)OC6)CC[C@]5(O)[C@@H]4CC[C@]3(O)C2)[C@H](O)[C@H](O)[C@H]1O [OUABAIN]	> 30	> 30	–	–	–	–	–	–	–
CC(C)N1CCOC(c2cccc(C(F)(F)F)c2)C1 (stereo not drawn) [OXAFLOZANE]	> 30	> 30	> 30	> 30	–	–	–	–	–
CN1C(C(=O)Nc2ccccn2)=C(OC(=O)/C=C/c2ccccc2)c2ccccc2S1(=O)=O [PIROXICAM CINNAMATE]	> 30	> 30	> 30	> 30	–	–	–	–	–
Cc1cn(-c2cc(NC(=O)c3ccc(C)c(Nc4nccc(-c5cnccn5)n4)c3)cc(C(F)(F)F)c2)cn1 [RADOTINIB]	> 30	> 30	> 30	> 30	–	> 30	> 30	> 30	> 30
CO[C@H]1/C=C/O[C@@]2(C)Oc3c(C)c(O)c4c(c3C2=O)C2=NC3(CCN(CC(C)C)CC3)NC2=C(NC(=O)/C(C)=C\C=C\[C@H](C)[C@H](O)[C@@H](C)[C@@H](O)[C@@H](C)[C@H](OC(C)=O)[C@@H]1C)C4=O [RIFABUTIN]	> 30	> 30	–	–	–	–	–	–	–
COC(=O)N(C)c1c(N)nc(-c2nn(Cc3ccccc3F)c3ncccc23)nc1N [RIOCIGUAT]	> 30	> 30	> 30	> 30	–	–	–	–	–

Reference: ChEMBL document CHEMBL5291721, “A preclinical secondary pharmacology resource illuminates target-adverse drug reaction associations of marketed drugs” (Nat Commun, 2023)
